From ChEMBL document CHEMBL2380299, “Sungsanpin, a lasso peptide from a deep-sea streptomycete” (J Nat Prod, 2013)
Activity calls are given as the source filed them. The calls are words filed in the database; no cut-off is given here. Where a SMILES comes first, the peptide text is derived from it. Bridges are numbered along the chain shown (N, C = ends).

Tests used:
A549 [1] = assay: Antiinvasive activity against human A549 cells assessed as MMP-9 mRNA level after 24 hrs by RT-PCR analysis; assay type: functional, cell-based
A549 [2] = assay: Antiinvasive activity against human A549 cells assessed as MMP-2 mRNA level after 24 hrs by RT-PCR analysis; assay type: functional, cell-based
A549 [3] = assay: Antiinvasive activity against human A549 cells assessed as increase in TIMP-2 mRNA level after 24 hrs by RT-PCR analysis; assay type: functional, cell-based
A549 [4] = assay: Antiinvasive activity against human A549 cells assessed as increase in TIMP-1 mRNA level after 24 hrs by RT-PCR analysis; assay type: functional, cell-based
A549 [5] = assay: Antiinvasive activity against human A549 cells at 50 uM after 24 hrs by micro plate reader analysis relative to control; assay type: functional
A549 [6] = assay: Antiinvasive activity against human A549 cells at 5 uM after 24 hrs by micro plate reader analysis relative to control; assay type: functional
A549 [7] = assay: Cytotoxicity against human A549 cells up to 50 uM after 24 hrs by CCK-8 assay; assay type: cell-based; settings: a549, 24 h

## CC[C@H](C)[C@@H]1NC(=O)[C@@H]2CCCN2C(=O)[C@H](CCCCN)NC(=O)[C@H](CO)NC(=O)CNC(=O)[C@H](Cc2ccccc2)NC(=O)CNC(=O)C[C@@H](C(=O)N[C@@H](CO)C(=O)N[C@@H](Cc2ccccc2)C(=O)NCC(=O)N[C@@H](CC(C)C)C(=O)N[C@@H](CO)C(=O)N[C@@H](Cc2c[nH]c3ccccc23)C(=O)N[C@@H](CC(C)C)C(=O)O)NC1=O [SUNGSANPIN] (GFGSKPIDSFGLSWL-OH; lactam N-8)
A549 [1]
  Activity: inactive
A549 [2]
  Activity: inactive
A549 [3]
  Activity: Dose-dependent effect
A549 [4]
  Activity: Dose-dependent effect
A549 [5]
  Activity: 47%
A549 [6]
  Activity: 25%
A549 [7]
  Activity: Non-toxic
